This passage reports TGI and GI50 results from PubChem BioAssay (NCI).

Test systems include BT-549 breast; NCI/ADR-RES ovarian; SF-539 CNS; RPMI-8226 leukemia; SK-OV-3 ovarian; MDA-N; CAKI-1 renal; NCI-H23 lung; SK-MEL-2 melanoma; RXF 393 renal; SW-620 colon; OVCAR-4 ovarian; TK-10 renal; MDA-MB-435; MALME-3M melanoma; OVCAR-3 ovarian.
Common to all, as to assay: NCI anticancer screen, dose series, 48 h

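All cell lines were grown in 96-well plates and treated with compound for 48 hours. GI50 marks 50% less growth. TGI denotes the concentration required for complete inhibition of growth.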

As for `FC(F)(Sc1ccccc1)c1nc2ccccc2o1`, the TGI with BT-549 breast is above 100 µM; in the test with NCI/ADR-RES ovarian, above 100 µM; in the test on SF-539 CNS, above 100 µM; with RPMI-8226 leukemia it was above 100 µM; in the test with SK-OV-3 ovarian, 69.4 µM; in the test on MDA-N, above 100 µM. In addition, the TGI in the test with CAKI-1 renal, in the test with NCI-H23 lung, in the test with SK-MEL-2 melanoma, with RXF 393 renal, in the test with SW-620 colon and in the test on OVCAR-4 ovarian was above 100 µM each time. In addition, the TGI in the test on TK-10 renal, in the test on MDA-MB-435, with MALME-3M melanoma and in the test on OVCAR-3 ovarian was above 100 µM throughout.

As for `CC1(C)CN=C(Nc2cccc(C(F)(F)F)c2)S1`, the TGI in the test on BT-549 breast, in the test on NCI/ADR-RES ovarian, in the test on SF-539 CNS, in the test on RPMI-8226 leukemia, in the test with SK-OV-3 ovarian and in the test with MDA-N was above 100 µM throughout. For the same compound, the TGI in the test with CAKI-1 renal, with NCI-H23 lung, with SK-MEL-2 melanoma, with RXF 393 renal, in the test on SW-620 colon and in the test with OVCAR-4 ovarian was above 100 µM throughout. The TGI in the test with TK-10 renal, in the test on MDA-MB-435, with MALME-3M melanoma and in the test on OVCAR-3 ovarian was above 100 µM throughout.

As for `O=C1C=C(NCCc2cc(Br)c(O)c(Br)c2)C(=O)c2ncccc21`, the TGI amounted to 5.07 µM with BT-549 breast; 27.5 µM in the test on NCI/ADR-RES ovarian; 2.52 µM in the test with SF-539 CNS; 18.3 µM in the test with RPMI-8226 leukemia; 33.4 µM with SK-OV-3 ovarian; 1.23 µM in the test on MDA-N. In addition, the TGI in the test on CAKI-1 renal came to 17.5 µM; with NCI-H23 lung, 1.66 µM; in the test with SK-MEL-2 melanoma, 4.1 µM; in the test on RXF 393 renal it was 13.4 µM; in the test with SW-620 colon, 8.6 µM; in the test on OVCAR-4 ovarian it was 11.3 µM. Also, the TGI came to 13.8 µM in the test on TK-10 renal, 0.723 µM with MDA-MB-435, 2.49 µM in the test with MALME-3M melanoma and 6.88 µM in the test with OVCAR-3 ovarian.

For `NS(=O)(=O)c1ccc(CNc2nc(-c3cccs3)nc3ccc(I)cc23)cc1`, the TGI is 27.8 µM in the test on BT-549 breast; 77.6 µM in the test on NCI/ADR-RES ovarian; 30.8 µM in the test on SF-539 CNS; 49.5 µM in the test with RPMI-8226 leukemia; 52.6 µM with SK-OV-3 ovarian; 41.9 µM with MDA-N. Moreover, the TGI in the test on CAKI-1 renal was determined as 22.8 µM; in the test with NCI-H23 lung it was 38.4 µM; with SK-MEL-2 melanoma, 32.9 µM; in the test with RXF 393 renal it was 43.5 µM; in the test on SW-620 colon, 83.8 µM; in the test on OVCAR-4 ovarian, 60.5 µM. Besides, the TGI was 28.1 µM in the test on TK-10 renal, 27.8 µM in the test with MDA-MB-435, 27.9 µM in the test with MALME-3M melanoma and 30.1 µM in the test on OVCAR-3 ovarian. In addition, in the test on SK-MEL-2 melanoma, the GI50 is 17.8 µM.

As for `CC(=O)Oc1ccccc1C(=O)O`, the TGI in the test on BT-549 breast, in the test with NCI/ADR-RES ovarian, in the test on SF-539 CNS, with RPMI-8226 leukemia, in the test on SK-OV-3 ovarian and in the test on MDA-N was above 100 µM throughout. The TGI in the test on CAKI-1 renal, in the test with NCI-H23 lung, with SK-MEL-2 melanoma, in the test with RXF 393 renal, with SW-620 colon and with OVCAR-4 ovarian was above 100 µM each time. The TGI in the test on TK-10 renal, in the test on MDA-MB-435, in the test on MALME-3M melanoma and in the test with OVCAR-3 ovarian was above 100 µM each time.

Regarding `Cc1cc(C)c2c(=O)n(CN3CCC(O)(c4ccccc4)CC3)sc2n1`, the TGI in the test with BT-549 breast is above 100 µM; with NCI/ADR-RES ovarian, above 100 µM; in the test with SF-539 CNS it was 58.3 µM; in the test with RPMI-8226 leukemia it was above 100 µM; with SK-OV-3 ovarian it was above 100 µM; with MDA-N, 38.3 µM. The TGI is above 100 µM with CAKI-1 renal; 83.1 µM in the test with NCI-H23 lung; above 100 µM in the test on SK-MEL-2 melanoma; 37.7 µM with RXF 393 renal; 69.5 µM in the test with SW-620 colon; 81.4 µM in the test with OVCAR-4 ovarian. Also, the TGI in the test on TK-10 renal was 29.8 µM; in the test on MDA-MB-435, 48.7 µM; in the test with MALME-3M melanoma, 32.9 µM; with OVCAR-3 ovarian, above 100 µM.

On to `CC(C)NC(=O)OCCN=C1c2ccccc2CCc2ccccc21`, for which the TGI in the test with BT-549 breast amounted to 28.5 µM; with NCI/ADR-RES ovarian, 99.5 µM; with SF-539 CNS, 41.5 µM; in the test with RPMI-8226 leukemia, 43.2 µM; in the test on SK-OV-3 ovarian, 85.4 µM; in the test on MDA-N, 39.8 µM. Moreover, the TGI was above 100 µM with CAKI-1 renal; above 100 µM in the test on NCI-H23 lung; 34.6 µM in the test with SK-MEL-2 melanoma; above 100 µM in the test on RXF 393 renal; above 100 µM in the test with SW-620 colon; 43.1 µM in the test with OVCAR-4 ovarian. Also, the TGI in the test with TK-10 renal amounted to 92.7 µM; in the test with MDA-MB-435, 55.1 µM; with MALME-3M melanoma, 36.3 µM; in the test on OVCAR-3 ovarian, 58.5 µM.

Consider `N#CCCN(CCC#N)c1ccc(/C=C2\N=C(c3ccccc3)N(c3ccccn3)C2=O)cc1`, for which the TGI in the test on BT-549 breast, in the test on NCI/ADR-RES ovarian, with SF-539 CNS, in the test with RPMI-8226 leukemia, in the test with SK-OV-3 ovarian and with MDA-N was above 100 µM each time. The TGI in the test with CAKI-1 renal, in the test with SK-MEL-2 melanoma, in the test on RXF 393 renal, in the test with SW-620 colon, in the test on OVCAR-4 ovarian and in the test on TK-10 renal was above 100 µM each time. The TGI in the test with MDA-MB-435, in the test on MALME-3M melanoma and in the test on OVCAR-3 ovarian was above 100 µM each time.
